Molecules are shown by their SMILES. In brackets after ≈: the same amount, converted by molar mass. Read-outs that look alike come from different tables or passages of the source.

The test system of data set [1] is Neisseria gonorrhoeae. The following applies: N. gonorrhoeae ATCC 49226; in parentheses in broth microdilution columns; ranges are for agar dilution testing; cited from earlier work.
A further data set concerns Neisseria meningitidis. Put plainly: Broth microdilution MIC testing (Example 1). The following applies: Neisseria meningitidis, ATCC13090; N. meningitidis MMX 0707 / ATCC 13090; broth microdilution; read-out: MIC. The format is cell-based. Here is the method: (§1) In this study, to evaluate the spectrum of activity, cannabidiol (CBD) was profiled against Neisseria. Testing was conducted following guidelines recommended by the Clinical and Laboratory Standards Institute (CLSI, 1-4), using vancomycin, meropenem, levofloxacin, and gentamicin as comparators for testing aerobic bacteria.
(§2) Test agents were supplied by Micromyx. Stock solutions of all compounds were prepared on the first day of testing at 101× the highest test concentration using solvents recommended by CLSI. CBD was prepared fresh on each of testing.
(§3) The test organisms evaluated in this study consisted of clinical isolates from the Micromyx Repository, reference isolates from the American Type Culture Collection (ATCC; Manassas, Va.), isolates from the antibiotic resistance bank from the Centers for Disease Control and Prevention (CDC; Atlanta, Ga.), and isolates from the Network on Antimicrobial Resistance in Staphylococcus aureus (NARSA; BEI Resources, Manassas, Va.). Upon initial receipt at Micromyx, the organisms were sub-cultured onto an appropriate agar medium. Following incubation, colonies were harvested from these plates and cell suspensions prepared and frozen at −80° C. with a cryoprotectant.
(§4) Prior to testing, Neisseria was streaked onto Chocolate agar (BD; Lot No. 9228071) and incubated at 35° C. in 5% CO2 for 24 hr.
(§5) For Neisseria, a modified medium described by the ATCC as capable of supporting growth was used. This medium contains 15 g Oxoid Special Peptone, 1 g corn starch (Ward's Science; Rochester, N.Y.; Lot 39-3271), 5 g NaCl (VWR; 57897), 4 g K2HPO4 (Sigma; Lot SLBT7061), 1 g KH2PO4 (SLBC1921V), and 1% IsoVitaleX (BD; Lot 8323954) enrichment per 500 mL.
(§6) MIC values were determined using a broth microdilution procedure described by CLSI (1-4). Automated liquid handlers (Multidrop 384, Labsystems, Helsinki, Finland; Biomek 2000 and Biomek FX, Beckman Coulter, Fullerton, Calif.) were used to conduct serial dilutions and liquid transfers.
(§7) To prepare the drug mother plates, which would provide the serial drug dilutions for the replicate daughter plates, the wells of columns 2 through 12 of standard 96-well microdilution plates (Costar 3795) were filled with 150 μl of the designated diluent for each row of drug. The test article and comparator compounds (300 μl at 101× the highest concentration to be tested) were dispensed into the appropriate wells in column 1. The Biomek 2000 was then used to make 2-fold serial dilutions in the mother plates from column 1 through column 11. The wells of column 12 contained no drug and served as the organism growth control wells for the assay.
(§8) The daughter plates were loaded with 190 μL per well of the appropriate test medium for the tested organism using the Multidrop 384. The daughter plates were completed on the Biomek FX instrument which transferred 2 μL of drug solution from each well of a mother plate to the corresponding well of each daughter plate in a single step.
A standardized inoculum of each test organism was prepared per CLSI methods (1-4). The inoculum for each organism was dispensed into sterile reservoirs divided by length (Beckman Coulter), and the Biomek 2000 was used to inoculate the plates. […]
The plates for testing of aerobic organisms were stacked 3 to 4 high, covered with a sterile lid, and incubated at 35° C. and 5% CO2 for the time periods specified in CLSI (1-4). […] The MIC was read and recorded as the lowest concentration of drug that inhibited visible growth of the organism.
On the technique in general: Dilution methods test growth across graded concentrations, often in twofold steps.

Data set [2] is described as follows: Un-inoculated solubility control plate, drug precipitation. In kind it is physicochemical. The note with it: Neisseria test medium and CAMHB.
Data set [3] deals with Neisseria gonorrhoeae. The experiment in a line: Broth microdilution MIC testing (Example 1). In kind it is cell-based. The following applies: Neisseria gonorrhoeae, broth microdilution, read-out: MIC. Here is the method:
as §1, §2, §3, §4, §5, §6, §7, §8
A standardized inoculum of each test organism was prepared per CLSI methods (1-4). The inoculum for each organism was dispensed into sterile reservoirs divided by length (Beckman Coulter), and the Biomek 2000 was used to inoculate the plates. Daughter plates were placed on the Biomek 2000 work surface in reverse orientation so that inoculation took place from low to high drug concentration. Plates were inoculated with 10 μL of the inoculum resulting in a final cell density of approximately 5×10^5 CFU/mL per well.
The plates for testing of aerobic organisms were stacked 3 to 4 high, covered with a sterile lid, and incubated at 35° C. and 5% CO2 for the time periods specified in CLSI (1-4). […] Following incubation, the microplates were removed from the incubator and viewed from the bottom using a plate viewer. […] The MIC was read and recorded as the lowest concentration of drug that inhibited visible growth of the organism.

In the case of `CC[C@H]1OC(=O)[C@H](C)[C@@H](O[C@H]2C[C@@](C)(OC)[C@@H](O)[C@H](C)O2)[C@H](C)[C@@H](O[C@@H]2O[C@H](C)C[C@H](N(C)C)[C@H]2O)[C@](C)(O)C[C@@H](C)CN(C)[C@H](C)[C@@H](O)[C@]1(C)O` [AZI, azithromycin], the “CLSI QC range of MIC” value in the data set with Neisseria gonorrhoeae [1] is 0.25 to 1 µg/mL.

Turning to `C=C(C)C1CCC(C)=CC1c1c(O)cc(CCCCC)cc1O` (stereo not drawn) [CBD, 2-[3-methyl-6-(1-methylethenyl)-2-cyclohexen-1-yl]-5-pentyl-1,3-benzenediol], the MIC – broadly, the lowest concentration that inhibits growth of the organism – in the data set on Neisseria meningitidis worked out at 0.25 µg/mL (≈ 0.795 µM); in the data set on Neisseria gonorrhoeae [3] (ATCC49226, N. gonorrhoeae MMX 0683 / ATCC 49226, plate read at 40 hr) it was 1 µg/mL (≈ 3.18 µM); with Neisseria gonorrhoeae [3] (N. gonorrhoeae MMX 6746) it was 1 µg/mL (≈ 3.18 µM); in the data set on Neisseria gonorrhoeae [3] (N. gonorrhoeae MMX 6757, plate read at 40 hr) it was 2 µg/mL (≈ 6.36 µM). The “Concentration at which precipitation was seen” value in data set [2] is ≥ 8000 ng/mL.
